In PMC2873402, “Discovery of High-Affinity Protein Binding Ligands – Backwards” (PLoS ONE, 2010):
Bridge positions count the residues as written; N and C are the ends. Ends that are not written are not given here. I, II: the chains in the order shown. * marks the point of attachment. StBu = CC(C)(C)S*

Experiments:
[1] = molecular target: T1, AKT1 (Homo sapiens, UniProt P31749); test: IP of AKT1 from pre-cleared A549 lysate with silver stain detection; type: binding; parameters: purchased Life Technologies
T1 sequence (P31749 whole entry): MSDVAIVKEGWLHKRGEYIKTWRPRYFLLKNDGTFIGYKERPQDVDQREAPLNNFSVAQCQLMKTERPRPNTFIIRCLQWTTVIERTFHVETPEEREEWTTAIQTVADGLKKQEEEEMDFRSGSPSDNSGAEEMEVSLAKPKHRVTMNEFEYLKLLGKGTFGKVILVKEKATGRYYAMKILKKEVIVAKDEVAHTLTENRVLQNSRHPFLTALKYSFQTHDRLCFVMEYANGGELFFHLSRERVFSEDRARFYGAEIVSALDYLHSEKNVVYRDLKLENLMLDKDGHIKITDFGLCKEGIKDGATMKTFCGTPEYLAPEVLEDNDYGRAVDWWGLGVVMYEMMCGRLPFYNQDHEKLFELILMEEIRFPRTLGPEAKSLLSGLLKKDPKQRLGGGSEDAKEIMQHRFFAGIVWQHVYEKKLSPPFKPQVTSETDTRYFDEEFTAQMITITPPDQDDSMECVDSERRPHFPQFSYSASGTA
Method: However, to more rigorously test the specificity of the synbody, we reduced the molar ratio of synbody to protein to approximately 2 to 1 and performed an IP to examine other proteins that were non-specifically bound by the synbody. In this experiment, 400 ng of AKT1 (66.4 nM) was spiked into 100 and 500 µg of A549 cell lysate pre-cleared on streptavidin beads (Figure S3) and precipitated using streptavidin beads coated with 15 pmols of synbody. Synbody coated beads and uncoated streptavidin beads were incubated overnight, washed, and bound proteins were eluted. Elution samples were split with half of the sample analyzed by silver stain and half analyzed by Western Blot (Figure 3E).
For all IP experiments, either a 1 µM or 250 nM solution of biotin-conjugated synbody was captured on 20 µL of streptavidin coated paramagnetic M-280 Dynabeads (Life Technologies) according to the manufacturers protocol. Synbody coated beads were washed five times with 1 mL of 100 mM phosphate buffered saline containing 0.05% Tween-20 (PBST) and incubated overnight at 4°C with shaking in the desired amount of target protein in A549 cell lysate. For Kd determination experiments, serial dilutions of AKT1 or ABL1 were prepared in binding buffer. After binding, beads were washed five times with 1 mL of PBST and heated at 70°C in 20 µL of 1× LDS loading buffer (Invitrogen) for 10 minutes. The samples were analyzed by SDS-PAGE gel with Western Blot detection using the appropriate antibody and imaged on a GE Healthcare Typhoon Trio.
Due to the high-level of A549 lysate protein binding to the magnetic beads used previously, we pre-cleared the cell lysate prior to IP. This was accomplished by overnight incubation of 1 mL of lysate (∼5 mg/mL) with 1 mL of streptavidin beads. The supernatant was removed and this lysate was used in subsequent experiments. […] One half of each elution sample was analyzed by SDS-PAGE followed by staining using a SNAP Silver Stain kit (Thermo Pierce) while the other half of the sample was analyzed by SDS-PAGE with Western Blot detection as before.

[2] = molecular target: T1, AKT1; test: IP of 35S-labeled AKT1, scintillation counting; type: binding; parameters: N-terminal vector leader of pEXP5-NT (6xHis + TEV site by own knowledge of the vector); made in house; host or cells: Expressway Mini Cell-Free Expression System (in vitro translation); details: AKT1 approximately 3% of total protein
Method: In order to validate the Kd determined by SPR, an additional IP was performed using ^35S-labeled AKT1 produced by in vitro translation (IVT). The translation mixture contained 12 µg of AKT1 in the presence of 400 µg of total protein and a concentration series of ^35S-labeled AKT1 from 41.5 nM to 80 pM was prepared by dilution of the 35-S-labeled AKT1 IVT mixture. The synbody was then used to precipitate the ^35S-labeled AKT1 in the same manner as before. Bound AKT1 was quantified using liquid scintillation counting and plotted as a function of AKT1 concentration.
AKT1 DNA was assembled by ligation of 42-bp oligonucleotides by PCR according to a procedure developed internally (Borovkov, et al. submitted). The PCR product was cloned into pEXP5-NT topo expression vector (Life Technologies), purified using a Qaigen PCR purification kit, and quantified by Nanodrop spectrophotometer (Thermo Scientific). […]
For all IP experiments, either a 1 µM or 250 nM solution of biotin-conjugated synbody was captured on 20 µL of streptavidin coated paramagnetic M-280 Dynabeads (Life Technologies) according to the manufacturers protocol. […] The samples were analyzed by SDS-PAGE gel with Western Blot detection using the appropriate antibody and imaged on a GE Healthcare Typhoon Trio.

[3] = system: AKT2; test: Protein array (ProtoArray), binding to AKT2; parameters: species or system human
Method: Synbodies were screened on an Invitrogen ProtoArray™ (Life Technologies, Carlsbad, CA, USA) detected with Alexa-555 labeled streptavidin (Life Technologies), and scanned using a Perkin Elmer ProScan Array HTP. The spots were analyzed using GenePix Pro (Molecular Devices, Sunnyvale, CA, USA) and data were processed using Genespring GX (Agilent Technologies, Santa Clara, CA, USA). Synbodies were labeled with biotin using either Maleimide-PEG2-Biotin (Thermo Pierce, Rockford, IL, USA) to label the C-terminal cysteine or biotin was incorporated during synbody synthesis by replacing the C-terminal cysteine with Lys-biotin (Novabiochem, San Diego, CA, USA). Synbodies were screened on the array using the recommended protocol with the following modifications: the arrays were blocked with 5 mL blocking buffer (50mM HEPES pH 7.5, 200 mM NaCl, 0.08% Triton X-100, 25% Glycerol, 20mM reduced Glutathione, 1.0mM DTT, 1% BSA) for 90 min. A 200 nM synbody solution was incubated in probing buffer (1× PBS, 1% BSA, 0.1% Tween) for 90 minutes. Slides were dried by centrifugation at 200g for 1 minute and scanned at 100% laser power and 70% photomultiplier voltage. The gal file was obtained for each array by submitting the barcode of the array to www.invitrogen.com/protoarray.
Heat maps were constructed using median-normalized data from each ProtoArray. […]

specificity ([1]; IP silver stain, A549 lysate): useful, though not perfect specificity | binding to AKT2 on protein array [3]: little binding
Substance: I: AHKVVPQRQIRHAYNRYGSGKC(StBu)-NH2 / II: FRGWAHIFFGPHVIYRGGSG (amide I:21-II:C) [synbody]
proteins precipitated (silver stain) ([1]; 400 ng AKT1 (66.4 nM) in pre-cleared A549 lysate, 500 µg (5mg/ml), 15 pmols synbody (approx. 2:1)): AKT1 was precipitated along with two other prominent proteins | dominant band precipitated ([1]; 400 ng AKT1 in 100 or 500 µg pre-cleared A549 lysate, Western Blot confirmation): the dominant band precipitated by the synbody was AKT1 | specificity for AKT1 in IVT lysate [2]: specifically binds AKT1 from a complex background
